The term EC50 denotes the concentration at which the effect is half-maximal.

Data on 23 compounds can be found in patent US20240067600A1, “SMALL MOLECULE INHIBITORS OF THE MITOCHONDRIAL PERMEABILITY TRANSITION PORE (mtPTP)” (UNIVERSITY OF KANSAS, priority 2014, published 2024).

Read-outs that look alike come from different tables or passages of the source.

Type in all cases: biochemical, mice
The test system of assay [1] is mtPTP. Nature of the assay: Calcium retention capacity (CRC) assay on isolated mitochondria. The settings on record: for Calcium Retention Capacity (CRC/CRC0 at 12.5 μM): 12.5 μM compound; for Calcium Retention Capacity (CRC/CRC0) at 1.56 μM: 1.56 μM compound.
Procedure: Assay buffer: 250 mM sucrose, 10 mM MOPS-Tris, 0.01 mM EGTA-Tris, 1.0 mM phosphoric acid-Tris, pH 7.4. • Solution 1. 10 mM glutamate and 5 mM malate in Assay buffer. • Solution 2. 1% DMSO in Solution 2. • Solution 3. 0.5 mg/mL mitochondria and 1.0 μM Calcium Green-5N in Assay Buffer. • Solution 4. 0.25 mM CaCl2).
Protocol Summary: • 1. Freshly isolate mitochondria, prepare solutions according to the recipes in the Reagent Section. • 2. Dispense 100 μL of Solution 2 to Columns 1-2 (negative control) of the 96-well black assay plate (Falcon 353376). • 3. Dispense 200 μL of Solution 1 to Row A Columns 3-12. • 4. Next, dispense 100 μL of Solution 2 to Rows B-H Columns 3-12. • 5. Add 4 μL of 5 mM test compounds in DMSO to Row A Columns 3-12, perform 1:2 serial dilutions Row A to H Columns 3-12. • 6. Finally, dispense 100 μL of Solution 3 in all wells. • 7. Experiment starts. Read Calcium Green-5N fluorescence (excitation 485 nm, emission 538 nm) and perform a train of 4 μL Solution 4 additions with Fluoroskan Ascent FL, Thermo Scientific.
Assay [2] deals with IMM potential. Nature of the assay: Rhodamine 123 (Rh123) uptake counterscreen.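 Note: isolated mitochondria respiring on glutamate plus malate in sucrose MOPS-Tris buffer at pH 7.4, Rh123 added with the organelles, compounds tested across a twofold dilution series.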
Procedure: Assay buffer: 250 mM sucrose, 10 mM MOPS-Tris, 0.01 mM EGTA-Tris, 1.0 mM phosphoric acid-Tris, pH 7.4 • Solution 1. 5.0 mM glutamate and 2.5 mM malate in Assay Buffer. • Solution 2. 1% DMSO in Solution 1. • Solution 3. 0.8 μM FCCP (the stock 40 μM in DMSO) in Solution 1. • Solution 4. 0.5 mg/mL mitochondria and 0.8 μM Rh123 in Assay Buffer.
Protocol Summary: • 1. Freshly isolate mitochondria, prepare solutions according to the recipes in the Reagent Section. • 2. Dispense 100 μL of Solution 3 to Columns 1-2 and Solution 2 Columns 11-12 (positive and negative controls, respectively) of the 96-well black assay plate (Falcon 353376). • 3. Dispense 200 μL of Solution 1 to Row A Columns 3-10. • 4. Next, dispense 100 μL of Solution 2 to Rows B-H Columns 3-10. • 5. Add 4 μL of 10 mM test compounds in DMSO to Row A Columns 3-10, perform 1:2 serial dilutions Row A to H Columns 3-10. • 6. Finally, dispense 100 μL of Solution 4 in all wells. The reaction starts. • 7. Keep the plate at room temperature for 5 minutes and then read fluorescence (excitation 485 nm, emission 538 nm) on Fluoroskan Ascent FL, Thermo Scientific.
Concentration-Response Counterscreen Assay to Identify Compounds that Prevent Mitochondrial Swelling Via Interference with the IMM Potential (SAR Assay AID No. 743361)
Assay buffer: 250 mM sucrose, 10 mM MOPS-Tris, 0.01 mM EGTA-Tris, 1.0 mM phosphoric acid-Tris, pH 7.4 • Solution 1. 5.0 glutamate and 2.5 mM malate in Assay Buffer. • Solution 2. 1% DMSO in Solution 1. • Solution 3. 0.8 μM FCCP (the stock 40 μM in DMSO) in Solution 1. • Solution 4. 0.5 mg/mL mitochondria and 0.8 μM Rh123 in Assay Buffer.
The test system of assay [3] is Mitochondrial Permeability Transition Pore. Nature of the assay: Mitochondrial swelling absorbance assay.
Procedure: Mitochondrial Swelling (Hit Validation, Confirmatory Assay, Concentration-Response, AID No. 720722)
Assay buffer: 250 mM sucrose, 10 mM MOPS-Tris, 0.01 mM EGTA-Tris, 1.0 mM phosphoric acid-Tris, pH 7.4 • Solution 1. 5.0 mM glutamate and 2.5 mM malate in Assay buffer. • Solution 2. 80-120 μM CaCl2) depending on mitochondrial activity in Solution 1. Note: Concentration of Ca^2+ in the assay is dependent upon the activity of the isolated mitochondria which is determined via a calcium titration just before each screening batch. A Ca^2+ concentration is used that allows for the arrival at a 2:1 window at the 20 minute time period. • Solution 3. 1% DMSO in Solution 2. • Solution 4. 2.0 mM EGTA-Tris, pH 7.4 in Solution 3. • Solution 5. 0.5 mg/mL mitochondria in Assay Buffer.
Protocol Summary: • 1. Freshly isolate mitochondria, prepare solutions according to the recipes in the reagent section • 2. Dispense 100 μL of Solution 4 to Columns 1-2 and Solution 3 Columns 11-12 (positive and negative controls, respectively) of the 96-well clear assay plate (Falcon 353072) • 3. Dispense 200 μL of Solution 1 to Row A Columns 3-10. • 4. Next, dispense 100 μL of Solution 3 to Rows B-H Columns 3-10. • 5. Add 4 μL of 5 mM test compounds in DMSO to Row A Columns 3-10, perform 1:2 serial dilutions Row A to H Columns 3-10. • 6. Finally, dispense 100 μL of Solution 5 in all wells. The reaction starts. • 7. Keep the plate at room temperature for 20 minutes and then read absorbance at 540 nm on MultiSkan EX, Thermo Scientific.
Concentration-Response Assay to Identify Compounds that Inhibit Mitochondrial Swelling (SAR Assay AID No. 743359)
Assay buffer: 250 mM sucrose, 10 mM MOPS-Tris, 0.01 mM EGTA-Tris, 1.0 mM phosphoric acid, pH 7.4 • Solution 1. 5.0 mM glutamate and 2.5 mM malate in Assay Buffer. • Solution 2. 100-120 μM CaCl2) depending on mitochondrial activity in Solution 1. Note: Concentration of Ca^2+ in the assay is dependent upon the activity of the isolated mitochondria which is determined via a calcium titration just before each screening batch. A Ca^2+ concentration is used that allows for the arrival at a 2:1 window at the 20 minute time period. • Solution 3. 1% DMSO in Solution 2. • Solution 4. 2.0 mM EGTA-Tris, pH 7.4 in Solution 3. • Solution 5. 0.5 mg/mL mitochondria in Assay Buffer.
Protocol Summary: • 1. Freshly isolate mitochondria, prepare solutions according to the recipes in the Reagent Section. • 2. Dispense 100 μL of Solution 4 to Columns 1-2 and Solution 3 Columns 11-12 (positive and negative controls, respectively) of the 96-well clear assay plate (Falcon 353072). • 3. Dispense 200 μL of Solution 1 to Row A Columns 3-10. • 4. Next, dispense 100 μL of Solution 3 to Rows B-H Columns 3-10. • 5. Add 4 μL of 5 mM test compounds in DMSO to Row A Columns 3-10, perform 1:2 serial dilutions Row A to H Columns 3-10. • 6. Finally, dispense 100 μL of Solution 5 in all wells. The reaction starts. • 7. Keep the plate at room temperature for 20 minutes and then read absorbance at 540 nm on MultiSkan EX, Thermo Scientific.
[4] abbreviates: Table 1, read-out: Rh123 uptake (EC50).
Setting [5] is: Table 1, unit inferred, average ± SEM.
Setting [6] is: Table 2, average of >3 experiments ± SEM.
Setting [7] is: Table 2, average of >3 experiments ± SEM, read-out: Rh123 Assay EC50.

In the case of `O=C(Nc1cc(Cl)cc(Cl)c1)c1cc(-c2ccc(F)c(O)c2)on1` [drawing 140], the “Calcium Retention Capacity (CRC/CRC0 at 12.5 μM)” value in assay [1] (Table 1, average ± SEM) turned out to be 7.14 ± 0.69. For the same compound, the EC50 was greater than 100 µM in assay [2] (setting [4]) and 0.0756 ± 0.0092 µM in assay [3] (setting [5]).
Take `CN1CCN(c2ccc(NS(=O)(=O)c3cccc(Cl)c3)cc2)CC1`: the “Calcium Retention Capacity (CRC/CRC0 at 12.5 μM)” value in assay [1] (Table 1, average ± SEM) was 1.05 ± 0.03. Moreover, the EC50 in assay [2] (setting [4]) is greater than 100 µM; in assay [3] (Table 1, average ± SEM), 37.5 ± 3.63 µM.
As for `COc1ccc(-c2cc(C(=O)Nc3cc(Cl)cnc3C)no2)cc1O`, in assay [1] (Table 1, average ± SEM), the “Calcium Retention Capacity (CRC/CRC0) at 1.56 μM” value turned out to be 10.10 ± 1.14 and the “Calcium Retention Capacity (CRC/CRC0 at 12.5 μM)” value turned out to be 13.47 ± 1.32. Also, the EC50 in assay [2] (setting [4]) is greater than 100 µM. The compound also gave an EC50 in assay [3] (Table 1, average ± SEM) of 0.011 ± 0.0011 µM.
Consider `O=C(Nc1cc(Cl)ccc1OCc1ccccc1)c1cc(-c2cccc(O)c2)on1`, for which the “Calcium Retention Capacity (CRC/CRC0 at 12.5 μM)” value in assay [1] (Table 1, average ± SEM) is 1.59 ± 0.33. Besides, the EC50 in assay [2] (setting [4]) is greater than 100 µM; in assay [3] (Table 1, average ± SEM), 17.6 ± 2.21 µM.
Regarding `COc1ccc(Cl)cc1C(=O)Nc1ccc(CCN2CCN(C(=O)OC(C)(C)C)CC2)cc1` [drawing 148], in assay [1] (Table 1, average ± SEM), the “Calcium Retention Capacity (CRC/CRC0 at 12.5 μM)” value amounted to 1.37 ± 0.02. Moreover, the EC50 in assay [2] (setting [4]) is greater than 100 µM; in assay [3] (Table 1, average ± SEM), 7.61 ± 0.839 µM.
Turning to `O=C(Nc1ccc(CN2CCCCC2)cc1)c1ccc(Cl)c(OCc2ccc(Cl)cc2)c1` [Entry 10], the “Calcium Retention Capacity (CRC/CRC0 at 12.5 μM)” value in assay [1] (setting [6]) is reported as 5.91 ± 0.38. Besides, the EC50 turned out to be 24.7 ± 1.5 µM in assay [2] (setting [7]) and 1.24 ± 0.39 µM in assay [3] (setting [6]).
For `COc1ccc(-c2cc(C(=O)Nc3cccc(Cl)c3)no2)cc1O`, the “Calcium Retention Capacity (CRC/CRC0 at 12.5 μM)” value in assay [1] (Table 1, average ± SEM) was 7.18 ± 0.87. Moreover, the EC50 in assay [2] (setting [4]) was greater than 100 µM; in assay [3] (Table 1, average ± SEM), 0.035 ± 0.0042 µM.
As for `Cc1ccc(Cl)cc1NC(=O)c1cc(-c2ccc(Cl)c(O)c2)on1`, the “Calcium Retention Capacity (CRC/CRC0) at 1.56 μM” value in assay [1] (Table 1, average ± SEM) is recorded as 6.21 ± 0.66 (at 1.56 μM). The EC50 was greater than 100 µM in assay [2] (setting [4]) and 0.00216 ± 0.00045 µM in assay [3] (Table 1, average ± SEM).
On to `COc1ccc(Cl)cc1C(=O)Nc1ccc(CN2CCNCC2)cc1` [drawing 153], for which, in assay [1] (Table 1, average ± SEM), the “Calcium Retention Capacity (CRC/CRC0 at 12.5 μM)” value worked out at 1.65 ± 0.06. Also, the EC50 in assay [2] (setting [4]) is greater than 100 µM; in assay [3] (Table 1, average ± SEM), 2.15 ± 0.1 µM.
On to `COc1ccc(-c2cc(C(=O)Nc3cc(Cl)ccc3OC)no2)cc1O`, for which the “Calcium Retention Capacity (CRC/CRC0) at 1.56 μM” value in assay [1] (Table 1, average ± SEM) was 6.62 ± 0.84. The “Calcium Retention Capacity (CRC/CRC0 at 12.5 μM)” value in assay [1] (Table 1, average ± SEM) is listed as 9.89 ± 1.31. The EC50 in assay [2] (setting [4]) was greater than 100 µM; in assay [3] (Table 1, average ± SEM), 0.097 ± 0.0034 µM.
As to `COc1ccc(/C=C/C(=O)Nc2cccc(Cl)c2)cc1O` [drawing 175], the “Calcium Retention Capacity (CRC/CRC0 at 12.5 μM)” value in assay [1] (Table 1, average ± SEM) is given as 14.02 ± 1.63.
Take `O=S(=O)(Nc1ccc(CCN2CCNCC2)cc1)c1cc(Cl)cc(Cl)c1`: the “Calcium Retention Capacity (CRC/CRC0 at 12.5 μM)” value in assay [1] (Table 1, average ± SEM) is on record as 1.09 ± 0.05. Besides, the EC50 in assay [2] (setting [4]) was greater than 100 µM; in assay [3] (Table 1, average ± SEM), 21.4 ± 0.983 µM.
On to `O=S(=O)(Nc1ccc(CCN2CCCCC2)cc1)c1ccc(F)c(Cl)c1`, for which the “Calcium Retention Capacity (CRC/CRC0 at 12.5 μM)” value in assay [1] (Table 1, average ± SEM) was 1.07 ± 0.03. The EC50 is greater than 100 µM in assay [2] (setting [4]) and 29.1 ± 2.92 µM in assay [3] (Table 1, average ± SEM).
In the case of `COc1ccc(-c2cc(C(=O)Nc3cc(Cl)ncc3C)no2)cc1O` [drawing 202], in assay [1] (Table 1, average ± SEM), the “Calcium Retention Capacity (CRC/CRC0 at 12.5 μM)” value is given as 4.27 ± 0.40. Besides, the EC50 was greater than 100 µM in assay [2] (setting [4]) and 0.366 ± 0.0475 µM in assay [3] (Table 1, average ± SEM).
On to `CC(C)C1CCN(CCCC(=O)c2ccc(Br)cc2)CC1`, for which the “Calcium Retention Capacity (CRC/CRC0 at 12.5 μM)” value in assay [1] (Table 1, average ± SEM) was found to be 1.16 ± 0.05. Besides, the EC50 in assay [2] (setting [4]) came to 64.8 ± 4.19 µM; in assay [3] (Table 1, average ± SEM), 10 ± 7.78 µM.
With `COc1c(Cl)cccc1NC(=O)c1cc(-c2cccc(O)c2)on1`, the “Calcium Retention Capacity (CRC/CRC0 at 12.5 μM)” value in assay [1] (Table 1, average ± SEM) is 1.83 ± 0.17. For the same compound, the EC50 in assay [2] (setting [4]) was greater than 100 µM; in assay [3] (Table 1, average ± SEM) it was 42.7 ± 2.59 µM.
With `Cc1c(Cl)cccc1NC(=O)c1cc(-c2ccc(F)c(O)c2)on1` [drawing 141], in assay [1] (Table 1, average ± SEM), the “Calcium Retention Capacity (CRC/CRC0) at 1.56 μM” value was 12.14 ± 0.55 (at 1.56 μM). For the same compound, the EC50 is greater than 100 µM in assay [2] (setting [4]) and 0.00089 ± 0.000141 µM in assay [3] (Table 1, average ± SEM).
`O=C(Nc1ccc(CN2CCCCC2)cc1)c1ccc(Cl)c(OCc2ccccc2Cl)c1` [Entry 9]: the “Calcium Retention Capacity (CRC/CRC0 at 12.5 μM)” value in assay [1] (setting [6]) turned out to be 2.37 ± 0.41. Moreover, the concentration for a half-maximal effect (EC50) in assay [2] (setting [7]) was greater than 100 µM; in assay [3] (setting [6]) it was 4 ± 0.66 µM.
As for `O=C(Nc1cccc(Cl)c1)c1cc(-c2ccc(F)c(O)c2)on1`, the “Calcium Retention Capacity (CRC/CRC0 at 12.5 μM)” value in assay [1] (Table 1, average ± SEM) is 10.17 ± 0.69. Further, the EC50 was greater than 100 µM in assay [2] (setting [4]) and 0.013 ± 0.002 µM in assay [3] (Table 1, average ± SEM).
In the case of `O=C(Nc1ccc(CN2CCCCC2)cc1)c1ccc(F)c(OCc2ccccc2)c1` [Entry 2], the “Calcium Retention Capacity (CRC/CRC0 at 12.5 μM)” value in assay [1] (setting [6]) amounted to 13.3 ± 1.0. Besides, the EC50 is greater than 100 µM in assay [2] (setting [7]) and 0.372 ± 0.028 µM in assay [3] (setting [6]).
Take `O=C(Nc1cccc(Cl)c1)c1cc(-c2cccc(O)c2)on1` [drawing 166]: the “Calcium Retention Capacity (CRC/CRC0 at 12.5 μM)” value in assay [1] (Table 1, average ± SEM) is 5.47 ± 0.57.
For `COc1ccc(-c2cc(C(=O)Nc3cc(Cl)ncc3C)no2)cc1O` [drawing 129], it took 0.366 ± 0.0475 µM to reach a half-maximal effect in assay [3] (setting [5]) (EC50).
Take `COc1ccc(-c2cc(C(=O)Nc3cc(Cl)cc(Cl)c3)no2)cc1O` [drawing 192]: the “Calcium Retention Capacity (CRC/CRC0 at 12.5 μM)” value in assay [1] (Table 1, average ± SEM) was 3.52 ± 0.44.
